# Source: patent US9125862B2, “Methods for the treatment of Prader-Willi-like syndrome or non-organic failure to thrive (NOFITT) feeding disorder using an agonist of the oxytocin receptor” (Institut National de la Sante et de la Rechereche Medicale …, priority 2010, dated 2015)
# How the values were obtained:
# [1] = test system: wild-type C57Bl6/J newborns; assay: Injection of SSR126768A (antagonist of the oxytocin receptor) in wild type newborns: feeding and lethality; format: in vivo, mouse
# Experimental: A first cohort of C57B16 wild type newborns were removed from their mothers 1-1h30 after their birth and very rapidly were given a single s.c. injection (20 μl) of vehicle control (0.2% ethanol in distilled water) or 3 μg (in 20 μl of 0.2% ethanol in distilled water) of SSR126768A (OTA). […] of C57B16 wild type newborns were injected 12-24 hours after birth. The dose of OTA used was based on previous publications (Serradeil-Le Gal, C., et al., 2004).
# We chose to use the Oxytocin antagonist SSR126768A (a gift from C. Serradeil-Le Gal, Sanofi-Synthélabo Recherche, Toulouse, France) because it was already well characterized.
# Taking in account all the previous data, we hypothesized that OT deficiency might be responsible for the Magel2 KO phenotype at birth. Consequently, we decided to inject the SSR 126768A compound, a specific OT antagonist (OTA) with high affinity with the OT receptor (Serradeil-Le Gal, C., et al., 2004). We proceeded to a single injection of 3 μg (20 μl) in 68 wild-type C57B16/J newborns (9 litters), 1 to 1.5 hour after birth. In parallel, in the same conditions, we injected the vehicle […] in 48 wild-type C57B16/J newborns (7 litters). Then, 12 (+/−3) hours after the injection time, we observed than 54% (37/68) of newborns injected with OTA had no milk in their stomach versus 4% (2/48) of newborns injected with vehicle. At P1 (24-36 h old), we observed than 48% (33/68) of newborns injected with OTA were dead versus 4% (2/48) of newborns injected with vehicle control. […] Thus, the SSR 126768A OTA at a dose of 3 μg appeared to have a specific effect, preventing the feeding process and leading to death, only when it was injected in a specific window of time after birth, before the suckling activity was initiated. This phenotype simulates the Magel2 KO feeding phenotype at birth.
# OTR = conditions: cited from earlier work
# rats = conditions: cited from earlier work
# Magel2 KO neonates = assay: Injection of oxytocin or vasopressin in Magel2 KO neonates: rescue of feeding and survival; format: in vivo, mouse; conditions: AVP injections, whatever the dose injected
# Experimental: Three to 5 hours after delivery, wild type pups or pups issued from a cross between an heterozygote (+/−) male with wild type females were temporally removed (10 min) from their mother, weighted and given a single s.c. (in the ventral region at the level of floating ribs) injection (20 μl) of isotonic saline or 2 μg oxytocin (Phoenix Pharmaceuticals. Inc., Catalog No. 051-01) dissolved in isotonic saline (20 μl). […] Following the same protocol, we injected vasopressin (Phoenix Pharmaceuticals. Inc., Catalog No. 065-07) at different doses. At P2, pups were scarified to be genotyped.
# The results obtained with the injection of SSR 126768A OTA let us think that we might restore a normal feeding behaviour in Magel2 KO newborns with an OT injection just after birth. Early neonatal manipulation of OT was reported in the literature without alterations of the postnatal development (Cushing, B. S., et Al., 2003; Yamamoto, Y., et al., 2004; Saito, O., et Al., 2007). Initially, 28 wild type newborns were injected with an isotonic saline (20 μl) and 4 of them died at P1. Another cohort of 28 wild type newborns, […] on hypothalamic nuclei one hour after the injection (Cushing, B. S., et Al., 2003; Yamamoto, Y., et al., 2004). We then decided to inject 2 μg of OT in Magel2 KO and wild type newborns, 3 to 5 hours after birth, the time when wild type newborns started to suckle but not the mutant neonates. […] The level of lethality is similar after an injection of saline solution (4/28 dead pups) or oxytocin (3/28 dead pups) and is in the range of lethality normally observed in wild type cohorts. In a second step, ten litters including a total of 37 wild type and 40 Magel2 KO neonates, were injected with an oxytocin solution. At P2, we observed that 95% (35/37) of wild type and 93% (37/40) of Magel2 mutant newborns survived with milk previously detected in their stomach at P1. In parallel, we controlled that the rescue of Magel2 KO neonates was specifically due to the oxytocin injection and not to the injection stress and/or handling of neonates. […]
SMILES,"survival 48 hours later ([1]; 3 μg in 20 μl injected 12-24 hours after birth, 42 wild-type pups)","newborns dead at P1 ([1]; single s.c. injection of 3 μg, 1 to 1.5 hour after birth, P1 (24-36 h old), vehicle 4% (2/48)) [%]","newborns with no milk in their stomach ([1]; single s.c. injection of 3 μg, 1 to 1.5 hour after birth, observed 12 (+/−3) hours after injection, vehicle 4% (2/48)) [%]",selectivity (OTR),"affinity for OTR (OTR; different species, including mouse)","lethality or secondary effect (rats; 1, 3 or 10 μg/g in rats)",duration of effect on uterus (rats; after administration of a dose as low as 3 μg/g) [h],rescue of the phenotype of Magel2 deficient neonates (Magel2 KO neonates)
"CCN(Cc1cccnc1)C(=O)c1ccc(Cl)c([C@]2(C)C(=O)N(Cc3ccc(OC)cc3OC)c3ccc(Cl)cc32)c1.Cl [SSR126768A, 4-chloro-3-[(3R)-(+)-5-chloro-1-(2,4-dimethoxybenzyl)-3-methyl-2-oxo-2,3-dihydro-1H-indol-3-yl]-N-ethyl-N-(3-pyridylmethyl)-benzamide, hydrochloride]",all of them survived,48,54,high selectivity,high affinity,without inducing lethality or any strong secondary effect,24,
"NC(=O)CC[C@@H]1NC(=O)[C@H](Cc2ccccc2)NC(=O)[C@H](Cc2ccc(O)cc2)NC(=O)[C@@H](N)CSSC[C@@H](C(=O)N2CCC[C@H]2C(=O)N[C@@H](CCCN=C(N)N)C(=O)NCC(N)=O)NC(=O)[C@H](CC(N)=O)NC1=O [AVP, Arginine-Vasopressin]",,,,,,,,did not rescue the phenotype
